Measurements published in US20240239771A1, “BACTERIAL EFFLUX PUMP INHIBITORS” (priority 2020, published 2024).
Counter-ions that a name gives are not always drawn.

Columns and labels:
[1] = system: Pseudomonas aeruginosa ATCC 27853; experiment: Intrinsic MIC assay (CLSI broth microdilution); type: cell-based; settings: ATCC27853, read-out: Intrinsic MIC of Compound
Description: MIC assays were conducted in accordance with Clinical and Laboratory Standards Institute (CLSI) guidelines for broth microdilution. A 96-well plate containing cation-adjusted Mueller-Hinton (CAMH broth with 2-fold serial dilution of compounds was inoculated with log-phase bacterial at 5×10^5 CFU/mL. The final volume in each well was 100 μL. Each compound was tested in duplicate. The microtiter plates were incubated in an aerobic environment for 18 hours at 37° C. Then the bacterial growth was tested by reading the plate with a VersaMax plate reader (Molecular Devices, Inc.) at 600 nm. The MIC was defined as the lowest compound concentration that inhibited 90% of bacteria growth.
The intrinsic MIC of the experimental EPIs was tested with the method described. The 2-fold serial dilution begins with 100 μg/mL of tested compound in the first column of the 96-well plates. The following Gram-negative bacterial strain was included in these assays: Pseudomonas aeruginosa ATCC 27853.

[2] = system: Pseudomonas aeruginosa ATCC 27853; experiment: Standard EPI assay: MIC of test antibiotic in absence and presence of EPI; type: cell-based; settings: for Enhanced Antibiotic's Activity (fold increase), Ceftazidime: ceftazidime with compound at 6.25 μg/mL, relative to MIC without EPI (2 μg/mL); for Enhanced Antibiotic's Activity (fold increase), Doxycycline: doxycycline with compound at 6.25 μg/mL, relative to MIC without EPI (32 μg/mL); for Enhanced Antibiotic's Activity (fold increase), Levofloxacin: levofloxacin with compound at 6.25 μg/mL, relative to MIC without EPI (1 μg/mL); for MIC of antibiotic in the absence of EPI: antibiotic alone, P. aeruginosa ATCC 27853
Description: The EPI assay for the purposes of these studies represents a MIC assay in which the MIC of the antibiotic against the bacteria is tested in the presence of an experimental efflux pump inhibitor (EPI). The highest concentration of the EPI present in the assay typically is ½ of the intrinsic MIC of the compound. If the intrinsic MIC of the EPI is greater than 100 μg/mL, the EPI assay was tested with 50 μg/mL. Using serial dilutions of the EPI, its enhancement of antibiotic activity was then evaluated. The relative EPI activity was decided by comparing the MIC of the antibiotic in the presence of the EPI compound with the intrinsic MIC of the antibiotic alone.
The impact of the EPIs on the MIC values of three test antibiotics (levofloxacin, ceftazidime and doxycycline) against P. aeruginosa ATCC 27853 were evaluated using our standard EPI assay. All three antibiotics levofloxacin, ceftazidime and doxycycline are known substrates of efflux pumps in P. aeruginosa, and are thus well-suited to be test antibiotics to assay for EPI activity.
In our standard EPI assay, the MIC of the test antibiotic is determined in the absence and presence of sub-inhibitory concentrations of the EPI. […] The MIC of levofloxacin against P. aeruginosa ATCC 27853 in the absence of EPI is 1 μg/mL. […] Similarly, the MIC of ceftazidime against P. aeruginosa ATCC 27853 in the absence of EPI is 2 μg/mL. In the presence of 6.25 μg/mL of the Example 4, the MIC of ceftazidime was reduced to 0.5 μg/mL, a 4-fold reduction. […] For all the examples in Table 1, the potentiation activities are determined at 6.25 μg/mL.

SMILES	MIC [1] [µg/mL]	Enhanced Antibiotic's Activity (fold increase), Ceftazidime [2] [fold]	Enhanced Antibiotic's Activity (fold increase), Doxycycline [2] [fold]	Enhanced Antibiotic's Activity (fold increase), Levofloxacin [2] [fold]	MIC of antibiotic in the absence of EPI [2] [µg/mL]
NCC[C@@H](O)[C@@H](N)CNC(=O)c1[nH]c2ccccc2c1-c1ccc(F)cc1 [Example 1, N-((2S,3R)-2,5-diamino-3-hydroxypentyl)-3-(4-fluorophenyl)-1H-indole-2-carboxamide hydrogen chloride salt]	> 100	1	16	8	
NCCC(O)[C@@H](N)CNC(=O)c1[nH]c2ccccc2c1-c1ccccc1 (stereo partly drawn) [Example 2, N-((2S)-2,5-diamino-3-hydroxypentyl)-3-phenyl-1H-indole-2-carboxamide hydrogen chloride salt]	> 100		16	8	
NCCC(O)[C@@H](N)CNC(=O)c1[nH]c2ccccc2c1C1CCCC1 (stereo partly drawn) [Example 4, 3-cyclopentyl-N-((2S)-2,5-diamino-3-hydroxypentyl)-1H-indole-2-carboxamide hydrogen chloride salt]	> 100	4	32	32	
NCCC(O)[C@@H](N)CNC(=O)c1[nH]c2ccc(F)cc2c1C1CCCCC1 (stereo partly drawn) [Example 5, 3-cyclohexyl-N-((2S)-2,5-diamino-3-hydroxypentyl)-5-fluoro-1H-indole-2-carboxamide hydrogen chloride salt]	50	16	32	32	
NCCC(O)[C@@H](N)CNC(=O)c1[nH]c2ccccc2c1C1CCC(F)(F)CC1 (stereo partly drawn) [Example 6, N-((2S)-2,5-diamino-3-hydroxypentyl)-3-(4,4-difluorocyclohexyl)-1H-indole-2-carboxamide hydrogen chloride salt]	100	4	16	64	
NCCC(O)[C@@H](N)CNC(=O)c1[nH]c2ccccc2c1-c1ccccc1F (stereo partly drawn) [Example 7, N-((2S)-2,5-diamino-3-hydroxypentyl)-3-(2-fluorophenyl)-1H-indole-2-carboxamide hydrogen chloride salt]	> 100	1	4	2	
NCC(O)C[C@H](N)CNC(=O)c1[nH]c2ccc(F)cc2c1-c1ccccc1Cl (stereo partly drawn) [Example 8, 3-(2-chlorophenyl)-N-((2S)-2,5-diamino-4-hydroxypentyl)-5-fluoro-1H-indole-2-carboxamide hydrogen chloride salt]	> 100	2	16	16	
N#Cc1ccc(-c2c(C(=O)NC[C@@H](N)CC(O)CN)[nH]c3ccc(F)cc23)cc1 (stereo partly drawn) [Example 9, 3-(4-cyanophenyl)-N-((2S)-2,5-diamino-4-hydroxypentyl)-5-fluoro-1H-indole-2-carboxamide hydrogen chloride salt]	> 100	2	32	32	
NCC(O)C[C@H](N)CNC(=O)c1[nH]c2ccccc2c1-c1ccc(F)cc1 (stereo partly drawn) [Example 10, 3-(4-fluorophenyl)-N-((2S)-2,5-diamino-4-hydroxypentyl)-1H-indole-2-carboxamide hydrogen chloride salt]	100	4	32	16	
N#Cc1ccc(-c2c(C(=O)NC[C@@H](N)CC(O)CN)[nH]c3ccccc23)cc1 (stereo partly drawn) [Example 11, 3-(4-cyanophenyl)-N-((2S)-2,5-diamino-4-hydroxypentyl)-1H-indole-2-carboxamide hydrogen chloride salt]	> 100	1	16	16	
NCC(O)C[C@H](N)CNC(=O)c1[nH]c2ccccc2c1-c1ccccc1 (stereo partly drawn) [Example 12, N-((2S)-2,5-diamino-4-hydroxypentyl)-3-phenyl-1H-indole-2-carboxamide hydrogen chloride salt]	> 100	2	32	16	
NCC(O)C[C@H](N)CNC(=O)c1[nH]c2ccc(F)cc2c1-c1ccccc1 (stereo partly drawn) [Example 13, N-((2S)-2,5-diamino-4-hydroxypentyl)-5-fluoro-3-phenyl-1H-indole-2-carboxamide hydrogen chloride salt]	> 100	2	32	32	
N#Cc1ccc(-c2c(C(=O)NC[C@@H](N)CC(O)CN)[nH]c3c(F)cccc23)cc1 (stereo partly drawn) [Example 14, 3-(4-cyanophenyl)-N-((2S)-2,5-diamino-4-hydroxypentyl)-7-fluoro-1H-indole-2-carboxamide hydrogen chloride salt]	> 100	1	16	32	
NCC(O)C[C@H](N)CNC(=O)c1[nH]c2ccccc2c1C1CCCCC1 (stereo partly drawn) [Example 15, 3-cyclohexyl-N-((2S)-2,5-diamino-4-hydroxypentyl)-1H-indole-2-carboxamide hydrogen chloride salt]	50	4	32	32	
NCC(CO)C[C@@H](N)CNC(=O)c1[nH]c2ccccc2c1-c1ccc(F)cc1 (stereo partly drawn) [Example 16, N-((2R)-2,5-diamino-4-(hydroxymethyl)pentyl)-3-(4-fluorophenyl)-1H-indole-2-carboxamide hydrogen chloride salt]	> 100	2	32	16	
CC(C)(O/N=C(\C(=O)N[C@@H]1C(=O)N2C(C(=O)[O-])=C(C[n+]3ccccc3)CS[C@H]12)c1csc(N)n1)C(=O)O [ceftazidime, Ceftazidime, reference compound]					2
C[C@H]1c2cccc(O)c2C(=O)C2=C(O)[C@]3(O)C(=O)C(C(N)=O)=C(O)[C@@H](N(C)C)[C@@H]3[C@@H](O)[C@@H]21 [doxycycline, Doxycycline, reference compound]					32
C[C@H]1COc2c(N3CCN(C)CC3)c(F)cc3c(=O)c(C(=O)O)cn1c23 [levofloxacin, Levofloxacin, reference compound]					1
